Measurements reported in US20160220557A1, “USE OF ACETYL-COA CARBOXYLASE INHIBITORS FOR TREATING ACNE VULGARIS” (PFIZER INC., priority 2013, published 2016).

What was measured:
[1] = tested on: de novo lipogenesis in ear skin and liver; assay: Effect of oral and topical ACCi on DNL (14C-acetate incorporation) in Syrian hamsters; format: in vivo, Syrian hamster; conditions: oral 100 mg/kg single dose, vs. vehicle
Procedure: Male Syrian gold Hamster at ˜10 weeks were maintained adlibitum on standard hamster chow and water. […] Example 3 for topical delivery was prepared as a solution in a vehicle consisting of 70:30 (Ethanol:propylene glycol) at a concentration of 100 mg/ml. Topical administration of a single dose (5 ul/ear) was applied to hamster ears with a pipette (2-10 ul) tip adhering to 2 minute intervals following the dosing order. The dosing timing allowed for the formulation to spread evenly over an approximate 1 sq cm area and absorb/dry prior to returning the animal to the cage. 1 hour post ACCi dose each animal received an IP injection of ^14C-labeled acetate (ARC0158B diluted in saline) following the 2 minute interval timing format. Each animal received an individually calculated amount of ^14C-acetate based on body weight (0.1 μCi/g in a dosing volume of 2 μl/g). One hour after the ^14C-Acetate injection animals were sacrificed by CO2 asphyxiation.
Liver and ear skin were collected for de novo lipogenesis determinations (^14C incorporation to lipid). Briefly, 2 liver punches totaling ˜400 mg of liver were collected from the bifurcated median lobe of each animal (using a 8 mm diameter Sklar Tru-punch—Sklar Instruments), rinsed with saline and blotted dry. The tissues were placed into pre-weighed in glass tubes (Pyrex 9826-16×125 mm with PTFE lined caps) containing NaOH (1.5 mL of 2.5 M).
Ear skin samples were prepared for analysis in the following manner. One 8 mm distal biopsy punch (using an 8 mm diameter Sklar Tru-punch—Sklar Instruments) (2 per animal) was taken just above the anatomical “V” in the aural cartilage to standardize sample collection area. The punch was then split into 2 layers (anterior and posterior). The anterior (front) surface is retained for analysis. The anterior skin was placed into pre-weighed in glass tubes (Pyrex 9826-16×125 mm with PTFE lined caps) containing NaOH (1.5 mL of 2.5 M).
Upon completion of the study, the liver and ear skin samples in NaOH were weighed and this weight was used to calculate the mass of the tissue collected. The capped tubes were heated in an dry oven (˜60° C.) until the tissue was fully degraded (˜4-6 hr, gentle vortexing 2-3 times during heating). Following degradation and cooling absolute ethanol (2.5 mL) was added to each sample. The tubes were recapped and vigorously mixed (vortexed) for 60 seconds and allowed to settle overnight at RT. Petroleum ether (4.8 mL) was added to each tube, recapped and the samples were vigorous mixed (60 sec). […] Aquasol-2 scintillation fluid (10 mL) (or other compatible scintillation fluid) was added to each vial and after vortexing the samples were counted in an appropriate scintillation counter (e g. Wallac Rack-Beta 1409 LSC). […]

[2] = tested on: SZ95 human sebocyte cells; assay: Inhibition of de novo lipogenesis (14C-acetate incorporation) in cultured human sebocytes; format: cell-based; conditions: Homo sapiens, SZ95 sebocytes, 14C-acetate incorporation into lipids relative to vehicle; read-out: C9302E Sebocyte IC50
Procedure: SZ95 sebocytes were grown in Human Sebocyte Growth Medium (HSGM) (Sebomed® medium (Biochrom: F8205) supplemented with 10% heat-inactivated fetal bovine serum, 1% penicillin/streptomycin, 1 mM calcium chloride and 5 ng/mL recombinant human epidermal growth factor (Life Tech: PHG0311)). At 90% confluence, cells were washed three times with PBS and then detached with 0.05% Trypsin-EDTA. Cells were centrifuged and resuspended in HSGM containing 10% charcoal-stripped serum (Life Tech: 12676-029). Cells were then plated in 24-well plates at a density of 0.25×10^6 cells/well and were incubated overnight to enable cell adherence to the culture plate.
Cells were treated with a dose response of compound, and each dose was assayed in triplicate. Briefly, compounds were dissolved in DMSO stocks and diluted 1:1000 into charcoal-stripped media. 0.1% DMSO without compound was used as the vehicle control. After a 1 hour preincubation with compound or vehicle, 0.25 μCi ^14C-acetic acid (American Radiolabeled Chemicals: ARC0158B) was added to each well. Plates were then incubated for an additional two hours. At the end of the incubation period, cells were removed from incubator, placed on ice, and then washed twice with ice-cold PBS to remove free ^14C-acetic acid. Plates were sealed and stored at −20° C. until analysis.
Plates were shaken for 1 hour at room temperature to induce lysis. Lysates were transferred to individual 1.5 mL polypropylene tubes, and wells were washed with 175 μl of PBS, which was added to lysates. 450 μl of a 1:1 (v/v) chloroform:methanol solution was then added to each tube, and then all tubes were vortexed for 10 seconds and centrifuged at 20,000×g for 5 minutes at room temperature to separate aqueous from organic phase. A 25 μl aliquot was removed from the bottom organic layer of each sample and added to 6 mL OptiPhase supermix (PerkinElmer: 1200-439) scintillation fluid. Counts of ^14C incorporated into lipids were assessed by scintillation counting. DNL (counts of ^14C incorporated into lipids) was expressed for compound treated cells relative to DNL in the vehicle control treated cells for determination of EC50 values. For a subset of the compounds tested, a second aliquot (3×35 μl) of the organic layer of each sample was removed and applied to a TLC lane (Analtech Silica Gel G Plates). Radiolabeled lipids were resolved using a 2-solvent system. Solvent 1 contained a 100:100:100:40:36 mixture of ethyl acetate:isopropyl alcohol:CHCl3:MeOH:0.25% KCl and solvent 2 a 70:27:3 hexane:diethyl ether:acetic acid mix. The TLC plate was dried under nitrogen for 30 minutes and [^14C]-calibrators added to a vacant lane. Bands were visualized and quantitated using a Molecular Dynamics' Storm 860 Phosphorimager system following 18-36 hours exposure to a Phosphorimager screen.

[3] = tested on: ear skin triglyceride levels; assay: Hamster ear triglyceride content after chronic treatment; format: in vivo, Syrian hamster; conditions: oral 30 mg/kg once daily for 19 days
Procedure: Male Syrian gold hamsters weighing between 150-200 g (22-23 weeks) were maintained adlibitum on standard hamster chow and on a 12 hour light and dark cycle. […] At the end of the study period, animals were euthanized by CO2 asphyxiation. Hamster pinia (ear) were removed by punch biopsy (using an 8 mm diameter Sklar Tru-punch—Sklar Instruments). Punch biopsies were taken just above the anatomical “V” in the aural cartilage of each ear to standardize sample collection area. The punch was then split into 2 layers (anterior and posterior). The anterior (front) surface was retained for analysis. For liver samples the bifurcated medial lobe was removed, rinsed in saline and drained of blood by placing the cut end of the lobe on a sterile absorbent paper and using capillary action. The liver lobe was then flash frozen in liquid nitrogen. Two Qiagen 3 mm Tungsten beads were added to tubes containing individual anterior biopsies of hamster ear skin along with 500 ul of homogenization buffer (methanol:water 1:1 v/v). […] Ear skin triglyceride content was determined via LC-MS on the AB SCIEX Qtrap 5500. […] Lipid extracts were then analyzed by UPLC-MS/MS using a Waters Acquity UPLC coupled to an AB Sciex QTRAP 5500 mass spectrometer. […] Lipid species were then analyzed on the mass spectrometer using positive ion electrospray ionization in the multiple reaction monitoring (MRM) mode. […]

In the case of `CC(C)(C)n1cc2c(n1)C(=O)CC1(CCN(C(=O)c3ccc4[nH]ncc4c3)CC1)O2` [Example 8, 2′-(tert-butyl)-1-(1H-indazole-5-carbonyl)-2′H-spiro[piperidine-4,5′-pyrano[3,2-c]pyrazol]-7′(6′H)-one], the “suppression of incorporation of de novo synthesized fatty acids in liver” value [1] is reported as 85%, the “suppression of incorporation of de novo synthesized fatty acids in skin” value [1] is reported as 84% and the IC50 [2] is reported as 549 nM. The “ear skin triglyceride levels vs. vehicle” value [3] was “No changes”.
